{"source": "patent US7410974B2", "about": "“Halogenated Quinazolinyl nitrofurans as antibacterial agents” (Ulysses Pharmaceutical Products, Inc., priority 2003, dated 2008)", "key": {"[1]": {"tested_on": "S. aureus ATCC 29213", "experiment": "MIC broth microdilution (NCCLS)", "format": "cell-based, Staphylococcus aureus", "settings": "Staphylococcus aureus, ATCC29213; S. aureus ATCC 29213; read-out: MIC"}, "[2]": {"tested_on": "S. aureus MRSA COL", "experiment": "MIC broth microdilution (NCCLS)", "format": "cell-based, Staphylococcus aureus", "settings": "Staphylococcus aureus, MRSA, S. aureus MRSA COL; read-out: MIC", "summary_of_the_method": "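Inocula of 10^5-10^6 CFU/ml were checked by colony counts, and out-of-range runs were rejected. Test compounds underwent serial 2-fold dilution in cation-adjusted Mueller Hinton broth and were incubated for 24 h at 35° C. The MIC was the lowest concentration without visible growth.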"}, "[3]": {"tested_on": "S. epidermidis ATCC 12228", "experiment": "MIC broth microdilution (NCCLS)", "format": "cell-based, Staphylococcus epidermidis", "settings": "Staphylococcus epidermidis, ATCC12228; S. epidermidis ATCC 12228; read-out: MIC", "summary_of_the_method": "(§1)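 Susceptibility by NCCLS microdilution: checked inoculum 10^5-10^6 CFU/ml, 24 h at 35° C, and growth assessed at 650 nm and by eye. Haemophilus was tested in HTM medium and Listeria with laked horse blood, each incubated under 5% CO2.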"}, "[4]": {"tested_on": "S. saprophyticus ATCC 15305", "experiment": "MIC broth microdilution (NCCLS)", "format": "cell-based, Staphylococcus saprophyticus", "settings": "Staphylococcus saprophyticus, ATCC15305; S. saprophyticus ATCC 15305; read-out: MIC", "summary_of_the_method": "(§2)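 NCCLS broth microdilution; inoculum 10^5-10^6 CFU/ml; 2-fold serial dilutions; 35° C, 24 h; A650 plus visual read. Media: MHBCA (S. saprophyticus, E. faecium), MHBCA + 2% laked horse blood (Listeria), HTM (Haemophilus), the last two under 5% CO2.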"}, "[5]": {"tested_on": "E. faecalis ATCC 29212", "experiment": "MIC broth microdilution (NCCLS)", "format": "cell-based, Enterococcus faecalis", "settings": "Enterococcus faecalis, ATCC29212; E. faecalis ATCC 29212; read-out: MIC"}, "[6]": {"tested_on": "E. faecium ATCC 35667", "experiment": "MIC broth microdilution (NCCLS)", "format": "cell-based, Enterococcus faecium", "settings": "Enterococcus faecium, ATCC35667, E. faecium ATCC 35667; read-out: MIC", "summary_of_the_method": "as §2"}, "[7]": {"tested_on": "E. coli ATCC 25922", "experiment": "MIC broth microdilution (NCCLS)", "format": "cell-based, Escherichia coli"}, "[8]": {"tested_on": "H. influenzae ATCC 49247", "experiment": "MIC broth microdilution (NCCLS), fastidious bacteria", "format": "cell-based", "settings": "Haemophilus influenzae, ATCC49247, HTM, 5% CO2", "summary_of_the_method": "as §1"}, "[9]": {"tested_on": "H. influenzae ATCC 49766", "experiment": "MIC broth microdilution (NCCLS), fastidious bacteria", "format": "cell-based", "settings": "Haemophilus influenzae, ATCC49766, HTM, 5% CO2", "summary_of_the_method": "as §1"}, "[10]": {"tested_on": "B. catarrhalis ATCC 8176", "experiment": "MIC broth microdilution (NCCLS), fastidious bacteria", "format": "cell-based, Branhamella (Moraxella) catarrhalis", "settings": "Moraxella catarrhalis, ATCC8176, HTM, 5% CO2", "summary_of_the_method": "as §1"}, "[11]": {"tested_on": "E. coli MC4100", "experiment": "MIC broth microdilution (NCCLS)", "format": "cell-based", "settings": "Escherichia coli; E. coli MC4100, pathotype Reference", "protocol": "(§3) Minimal Inhibitory Concentration (MIC) Determination. Bacteria (primary strain panel, TABLE 1). Susceptibility tests were performed following the recommendations from the National Committee for Clinical Standards (NCCLS). The MICs were determined by a broth microdilution technique using a final volume of 100 μl of cation-adjusted Mueller Hinton Broth (MHBCA) and a bacterial inoculum of 10^5-10^6 Colony Forming Units (CFU)/ml. The inocula were verified and precisely determined by applying 10-μl drops of 10-fold dilutions onto Triptic Soy Agar plates. The CFU were counted after an incubation of 24 h at 35° C. Any experiment showing an inoculum that was more or less than 10^5-10^6 CFU/ml was rejected. Control antibiotics and test compounds were prepared at a concentration equivalent to 2-fold the highest desired final concentration. Compounds were then diluted directly in the 96-well microtiter plates by serial 2-fold dilutions using a multichannel pipette. Microtiter plates were incubated during 24 h at 35° C. and growth was recorded by using a microtiterplate reader at 650 nm as well as by visual observation. The MIC was defined as the lowest concentration of compound yielding no visible growth. […] Fastidious bacteria. The medium used for Listeria monocytogenes, Neisseria meningitidis, and Campylobacter jejuni was MHBCA containing 2% laked horse blood. The medium used for Haemophilus influenzae and Branhamella (Moraxella) catarrhalis was HTM as recommended by the NCCLS. Cultures of these fastidious bacteria were incubated at 35° C. in a 5% CO2 atmosphere. […] The medium used for Bacteroides fragilis was Wilkins Chalgren broth and growth was allowed under an anaerobic atmosphere at 35° C. for 48 hours."}, "[12]": {"tested_on": "E. coli ATCC 35150 (O157:H7)", "experiment": "MIC broth microdilution, E. coli strains", "format": "cell-based", "settings": "Escherichia coli, ATCC35150", "protocol": "as §3\n(§4) Finally, compounds were also tested against populations of various clinical strains (antibiotic resistant strain panel, TABLE 1)."}, "[13]": {"tested_on": "E. coli Ec022c (EIEC)", "experiment": "MIC broth microdilution, E. coli strains", "format": "cell-based", "settings": "Escherichia coli, pathotype EIEC", "protocol": "as §3, §4"}, "[14]": {"tested_on": "E. coli Ec027c (EIEC)", "experiment": "MIC broth microdilution, E. coli strains", "format": "cell-based", "settings": "Escherichia coli, pathotype EIEC", "protocol": "as §3, §4"}, "[15]": {"tested_on": "E. coli Ec117c (EIEC)", "experiment": "MIC broth microdilution, E. coli strains", "format": "cell-based", "settings": "Escherichia coli, pathotype EIEC", "protocol": "as §3, §4"}, "[16]": {"tested_on": "E. coli Ec118c (EIEC)", "experiment": "MIC broth microdilution, E. coli strains", "format": "cell-based", "settings": "Escherichia coli, pathotype EIEC", "protocol": "as §3, §4"}, "[17]": {"tested_on": "E. coli Ec119c (EIEC)", "experiment": "MIC broth microdilution, E. coli strains", "format": "cell-based", "settings": "Escherichia coli, pathotype EIEC", "protocol": "as §3, §4"}, "[18]": {"tested_on": "E. coli d25-ALR-pen14 (O157:H7)", "experiment": "MIC broth microdilution, E. coli strains", "format": "cell-based", "settings": "Escherichia coli", "protocol": "as §3, §4"}, "[19]": {"tested_on": "E. coli d4-OLR-pen10 (O157:H7)", "experiment": "MIC broth microdilution, E. coli strains", "format": "cell-based", "settings": "Escherichia coli", "protocol": "as §3, §4"}, "[20]": {"tested_on": "H. influenzae ATCC 49247", "experiment": "Minimal Bactericidal Concentration (MBC)", "format": "cell-based", "settings": "Haemophilus influenzae, ATCC49247, 99.9% killing", "summary_of_the_method": "(§5)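 After MIC reading, samples from each clear microtiter well (at least 5 wells without visible growth) were plated on TSA for viable counts. Plates were incubated at 35° C. for exactly 24 h and colonies counted.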"}, "[21]": {"tested_on": "H. influenzae ATCC 49766", "experiment": "Minimal Bactericidal Concentration (MBC)", "format": "cell-based", "settings": "Haemophilus influenzae, ATCC49766, 99.9% killing", "summary_of_the_method": "as §5"}, "[22]": {"tested_on": "B. catarrhalis ATCC 8176", "experiment": "Minimal Bactericidal Concentration (MBC)", "format": "cell-based, Branhamella (Moraxella) catarrhalis", "settings": "Moraxella catarrhalis, ATCC8176, 99.9% killing", "protocol": "Minimal Bactericidal Concentration (MBC). After the microtiter plates were read for the determination of the MIC, a 10-μl sample of each clear well (at least 5 wells without visible growth) was applied onto TSA plates for viable counts determination.\nPetri dishes were incubated at 35° C. for exactly 24 h and bacterial colonies were counted."}}, "note": "Read-outs that look alike come from different tables or passages of the source.", "data": [{"smiles": "CC1(C)S[C@@H]2[C@H](NC(=O)[C@H](N)c3ccccc3)C(=O)N2[C@H]1C(=O)O", "note": "[Ampicillin]", "values": [{"measurement": "MIC", "setting": "[1]", "result": "1 to 2", "unit": "µg/mL"}, {"measurement": "MIC", "setting": "[2]", "result": 8, "unit": "µg/mL"}, {"measurement": "MIC", "setting": "[3]", "result": 64, "unit": "µg/mL"}, {"measurement": "MIC", "setting": "[4]", "result": 0.12, "unit": "µg/mL"}, {"measurement": "MIC", "setting": "[5]", "result": 1, "unit": "µg/mL"}, {"measurement": "MIC", "setting": "[6]", "result": 1, "unit": "µg/mL"}, {"measurement": "MIC", "setting": "[7]; E. coli ATCC 25922 (Reference)", "result": 4, "unit": "µg/mL"}, {"measurement": "MIC", "setting": "[7]; Escherichia coli, ATCC25922, E. coli ATCC 25922 (Reference), read-out: MIC", "result": "4 to 8", "unit": "µg/mL"}, {"measurement": "MIC", "setting": "[8]", "result": "2 to 4", "unit": "µg/mL"}, {"measurement": "MIC", "setting": "[9]", "result": "≤ 0.12", "unit": "µg/mL"}, {"measurement": "MIC", "setting": "[10]", "result": "≤ 0.03", "unit": "µg/mL"}, {"measurement": "MIC", "setting": "[11]", "result": 4, "unit": "µg/mL"}, {"measurement": "MIC", "setting": "[12]", "result": 2, "unit": "µg/mL"}, {"measurement": "MIC", "setting": "[13]", "result": "> 64", "unit": "µg/mL"}, {"measurement": "MIC", "setting": "[14]", "result": "> 64", "unit": "µg/mL"}, {"measurement": "MIC", "setting": "[15]", "result": 16, "unit": "µg/mL"}, {"measurement": "MIC", "setting": "[16]", "result": "> 64", "unit": "µg/mL"}, {"measurement": "MIC", "setting": "[17]", "result": "> 64", "unit": "µg/mL"}, {"measurement": "MIC", "setting": "[18]", "result": "2 to 4", "unit": "µg/mL"}, {"measurement": "MIC", "setting": "[19]", "result": "2 to 4", "unit": "µg/mL"}, {"measurement": "MBC", "setting": "[20]", "result": 4, "unit": "µg/mL"}, {"measurement": "MBC", "setting": "[21]", "result": "≤ 0.12", "unit": "µg/mL"}, {"measurement": "MBC", "setting": "[22]", "result": "≤ 0.03", "unit": "µg/mL"}]}, {"smiles": "O=[N+]([O-])c1ccc(C=Cc2nc(Nc3cccc(O)c3)c3cc(F)ccc3n2)o1", "note": "[VI, 6-fluoro-2-[2-(5-nitro-2-furyl)vinyl]-4-(m-hydroxyanilino)-quinazoline]", "values": [{"measurement": "melting point", "result": "241 to 242 °C (dec.)"}]}]}
